Counter-ions that a name gives are not always drawn. Like-named read-outs stand apart in the source and are kept apart here.
Assays:
[1] = test system: IL-23 (p19/p40); experiment: IL23-p19 ELISA, Dendritic, LPS (compound screening using DC cells); format: cell-based, Human; conditions: PBMC-derived DC cells, IFNγ primed, LPS 1 μg/ml, 18 hours, 10 pt, read-out: IL23-p19 ELISA, Dendritic, LPS, 10 pt, EC50
How it was run: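 Human PBMC-derived dendritic cells (7 d GM-CSF 100 ng/ml + IL-4 20 ng/ml), primed 24 h with IFNγ 50 ng/ml, pre-incubated 1 h with compound, then stimulated 18 h with LPS 1 μg/ml. Supernatant IL-23 measured by p19-capture/p40-detection chemiluminescent ELISA; CellTiter Glo checks cytotoxicity.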

[2] = test system: IL-23p19; experiment: LPS induced IL23p19 in THP-1 cells (with IFNγ primed) assay; format: cell-based, Human; conditions: THP-1 cells, IFNγ primed, LPS 1 ug/mL, 18 hours, 10 pt, read-out: IL23-p19 ELISA, THP1-IFNy, LPS, 10 pt EC50
How it was run: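 THP-1 cells primed ~18 h with IFNγ (50 ng/mL), pre-incubated 1 h with compound at 37 °C, then stimulated 18 h with LPS (1 ug/mL final). Supernatant IL-23p19 measured by sandwich ELISA with chemiluminescent read-out; EC50 from curve fitting. Toxicity checked on the remaining cells by Cell Titer Glo.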

| SMILES | EC50 ([1]; Homo sapiens, 18 h) [nM] | EC50 ([2]; Homo sapiens, THP-1, 18 h) [nM] | further results |
| --- | --- | --- | --- |
| CCO[C@H]1C[C@@H](n2cc(NC(=O)c3ccc(-c4cn[nH]c4)o3)c(-c3nc(F)ccc3F)n2)C1 [Compound I-156, N-(3-(3,6-difluoropyridin-2-yl)-1-((1s,3s)-3-ethoxycyclobutyl)-1H-pyrazol-4-yl)-5-(1H-pyrazol-4-yl)furan-2-carboxamide] | 105 | 59.5 | – |
| O=C(Nc1cn(CC2(CO)COC2)nc1-c1ccccn1)c1csc(-c2cn[nH]c2)n1 [II-47, N-(1-((3-(hydroxymethyl)oxetan-3-yl)methyl)-3-(pyridin-2-yl)-1H-pyrazol-4-yl)-2-(1H-pyrazol-4-yl)thiazole-4-carboxamide] | 3210 | 1170 | – |
| Cn1cc(NC(=O)c2csc(-c3cnn(COP(=O)(O)O)c3)n2)c(-c2ccccn2)n1 [II-35, (4-(4-((1-methyl-3-(pyridin-2-yl)-1H-pyrazol-4-yl)carbamoyl)thiazol-2-yl)-1H-pyrazol-1-yl)methyl dihydrogen phosphate] | 292 | 206 | – |
| Cn1cc(NC(=O)c2ccc(-c3cnn(COP(=O)(O)O)c3)o2)c(-c2ccccn2)n1 [Compound I-82, Sodium [4-{5-((1-Methyl-3-(pyridine-2-yl)-1H-pyrazol-4-yl)carbamoyl)furan-2-yl}-1H-pyrazol-1-yl]methyl phosphate] | – | – | EC50 ([1]; phosphate): 780 nM; EC50 ([2]; phosphate): 205 nM |
| CCO[C@H]1C[C@@H](n2cc(NC(=O)c3ccc(-c4cn[nH]c4)o3)c(-c3cccc(F)n3)n2)C1 [Compound I-144, N-(1-((1s,3s)-3-ethoxycyclobutyl)-3-(6-fluoropyridin-2-yl)-1H-pyrazol-4-yl)-5-(1H-pyrazol-4-yl)furan-2-carboxamide formate] | 34.3 | 78 | – |
| CCOCCn1cc(NC(=O)c2ccc(-c3c[nH]nc3C)o2)c(-c2ccccn2)n1 [Compound I-56, N-(1-(2-ethoxyethyl)-3-(pyridin-2-yl)-1H-pyrazol-4-yl)-5-(3-methyl-1H-pyrazol-4-yl)furan-2-carboxamide formate] | 7720 | 156 | – |
| CCO[C@H]1C[C@@H](n2cc(NC(=O)c3csc(-c4cn[nH]c4)n3)c(-c3ccc(F)cn3)n2)C1 [II-153, N-(1-((cis)-3-ethoxycyclobutyl)-3-(5-fluoropyridin-2-yl)-1H-pyrazol-4-yl)-2-(1H-pyrazol-4-yl)thiazole-4-carboxamide] | 141 | 748 | – |
| CCOCCn1cc(NC(=O)c2ccc(-c3cn[nH]c3)o2)c(-c2nccs2)n1 [Compound I-118, N-(1-(2-ethoxyethyl)-3-(thiazol-2-yl)-1H-pyrazol-4-yl)-5-(1H-pyrazol-4-yl)furan-2-carboxamide formate] | – | – | EC50 ([1]; formate): 161 nM; EC50 ([2]; formate): 68.1 nM |
| CCOCCn1cc(NC(=O)c2ccc(-c3cnn(CC)c3)o2)c(-c2ccccn2)n1 [Compound I-39, N-(1-(2-ethoxyethyl)-3-(pyridin-2-yl)-1H-pyrazol-4-yl)-5-(1-ethyl-1H-pyrazol-4-yl)furan-2-carboxamide formate] | 4320 | 1950 | – |
| CCOCCn1cc(NC(=O)c2csc(-c3c[nH]nc3C)n2)c(-c2ccccn2)n1 [II-31, N-(1-(2-ethoxyethyl)-3-(pyridin-2-yl)-1H-pyrazol-4-yl)-2-(3-methyl-1H-pyrazol-4-yl)thiazole-4-carboxamide] | – | – | EC50 [1]: 799 nM; EC50 [2]: 170 nM |
| O=C(Nc1cn(CC(F)(F)F)nc1-c1ccccn1)c1ccc(-c2cn[nH]c2)o1 [Compound I-117, 5-(1H-pyrazol-4-yl)-N-(3-(pyridin-2-yl)-1-(2,2,2-trifluoroethyl)-1H-pyrazol-4-yl)furan-2-carboxamide] | 25.7 | 284 | – |
| O=C(Nc1cn(C(F)F)nc1-c1ccccn1)c1csc(-c2cn[nH]c2)n1 [II-88, N-(1-(difluoromethyl)-3-(pyridin-2-yl)-1H-pyrazol-4-yl)-2-(1H-pyrazol-4-yl)thiazole-4-carboxamide] | 390 | 96.5 | – |
| Cn1cc(NC(=O)c2ccc(-c3cnn(COP(=O)(O)O)c3)o2)c(-c2ccccn2)n1 [Compound I-81, [4-{5-((1-Methyl-3-(pyridine-2-yl)-1H-pyrazol-4-yl)carbamoyl)furan-2yl}-1H-pyrazol-1-yl]methyl dihydrogen phosphate] | 960 | 153 | – |
| CCO[C@H]1C[C@@H](n2cc(NC(=O)c3ccc(-c4cn[nH]c4)o3)c(-c3ccc(F)cn3)n2)C1 [Compound I-138, N-(1-((1s,3s)-3-ethoxycyclobutyl)-3-(5-fluoropyridin-2-yl)-1H-pyrazol-4-yl)-5-(1H-pyrazol-4-yl)furan-2-carboxamide formate] | 686 | 926 | – |

The next lines start with results.

| EC50 ([1]; Homo sapiens, 18 h) [nM] | EC50 ([2]; Homo sapiens, THP-1, 18 h) [nM] | SMILES | further results |
| --- | --- | --- | --- |
| 74.8 | 12.5 | O=C(Nc1cn([C@H]2CC[C@H](NCC(F)F)CC2)nc1-c1ncccn1)c1csc(-c2cn[nH]c2)n1 [II-179, N-(1-((1r,4r)-4-((2,2-difluoroethyl)amino)cyclohexyl)-3-(pyrimidin-2-yl)-1H-pyrazol-4-yl)-2-(1H-pyrazol-4-yl)thiazole-4-carboxamide] | – |
| 40.7 | 42.8 | CN1CCN(CCn2cc(NC(=O)c3ccc(-c4cn[nH]c4)o3)c(-c3ccccn3)n2)CC1 [Compound I-112, N-(1-(2-(4-methylpiperazin-1-yl)ethyl)-3-(pyridin-2-yl)-1H-pyrazol-4-yl)-5-(1H-pyrazol-4-yl)furan-2-carboxamide] | – |
| 569 | 315 | CCOCCn1cc(NC(=O)c2csc(-c3c[nH]nc3C)n2)c(-c2ccccn2)n1 [II-21, N-(1-(2-ethoxyethyl)-3-(pyridin-2-yl)-1H-pyrazol-4-yl)-2-(3-methyl-1H-pyrazol-4-yl)thiazole-4-carboxamide, formic acid salt] | – |
| 38.5 | 26.7 | CCO[C@H]1C[C@@H](n2cc(NC(=O)c3csc(-c4cn[nH]c4)n3)c(-c3cccc(F)n3)n2)C1 [II-160, N-(1-((cis)-3-ethoxycyclobutyl)-3-(6-fluoropyridin-2-yl)-1H-pyrazol-4-yl)-2-(1H-pyrazol-4-yl)thiazole-4-carboxamide] | – |
| 55.4 | 31 | O=C(Nc1cn(C2CN(C(=O)C3CC3(F)F)C2)nc1-c1ccccn1)c1ccc(-c2cn[nH]c2)o1 (centres unmarked) [Compound I-103, N-[1-{1-(2,2-difluorocyclopropane-1-carbonyl)azetidin-3-yl}-3-(pyridine-2-yl)-1H-pyrazol-4-yl]-5-(1H-pyrazol-4-yl)furan-2-carboxamide, formate salt] | – |
| 70.8 | 82.1 | CCO[C@H]1C[C@@H](n2cc(NC(=O)c3csc(-c4cn[nH]c4)n3)c(-c3nc(F)ccc3F)n2)C1 [II-174, N-(3-(3,6-difluoropyridin-2-yl)-1-((cis)-3-ethoxycyclobutyl)-1H-pyrazol-4-yl)-2-(1H-pyrazol-4-yl)thiazole-4-carboxamide] | – |
| 226 | 64.8 | O=C(Nc1cn([C@H]2C[C@@H](OCC(F)(F)F)C2)nc1-c1cccc(F)n1)c1ccc(-c2cn[nH]c2)o1 [Compound I-150, N-(3-(6-fluoropyridin-2-yl)-1-((1s,3s)-3-(2,2,2-trifluoroethoxy)cyclobutyl)-1H-pyrazol-4-yl)-5-(1H-pyrazol-4-yl)furan-2-carboxamide formate] | – |
| 58.9 | 38 | Cc1n[nH]cc1-c1ccc(C(=O)Nc2cn(C3COC3)nc2-c2ccccn2)o1 [Compound I-30, 5-(3-methyl-1H-pyrazol-4-yl)-N-(1-(oxetan-3-yl)-3-(pyridin-2-yl)-1H-pyrazol-4-yl)furan-2-carboxamide] | – |
| – | 72.3 | Cn1cc(NC(=O)c2ccc(-c3cn[nH]c3)o2)c(-c2ccccn2)n1 [Compound I-67, N-{1-Methyl-3-(pyridine-2-yl)-1H-pyrazol-4-yl}-5-(1H-pyrazol-4-yl)furan-2-carboxamide, formate salt] | EC50 ([1]; formate salt): 4.1 nM |
| 71 | 270 | O=C(Nc1cn(C2CCC2)nc1-c1ccccn1)c1coc(-c2cn[nH]c2)n1 [III-5, N-(1-cyclobutyl-3-(pyridin-2-yl)-1H-pyrazol-4-yl)-2-(1H-pyrazol-4-yl)oxazole-4-carboxamide] | – |
| 34.3 | 65.1 | O=C(Nc1cn(C2CCOCC2)nc1-c1nccs1)c1csc(-c2cn[nH]c2)n1 [II-111, 2-(1H-pyrazol-4-yl)-N-(1-(tetrahydro-2H-pyran-4-yl)-3-(thiazol-2-yl)-1H-pyrazol-4-yl)thiazole-4-carboxamide] | – |

— patent US10208074B2, “Pyrazole compounds and method for making and using the compounds” (Rigel Pharmaceuticals, Inc., priority 2015, dated 2019)
